The target of this assay is MRGPRX4 (Homo sapiens, UniProt Q96LA9). The experiment in a line: MRGPR X4 antagonist activity, IP-One Gq HTRF assay in stably transfected HEK cells (versus agonist bilirubin, deoxycholic acid, conjugated bilirubin, urobilin, obeticholic acid or BAR502). Format: cell-based. More on the design: expressed in transfected cells; host or cells: HEK cells, stably transfected. In outline: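 Stably transfected HEK cells expressing human MRGPR X4, seeded overnight, given compounds as 10-point 1:3 curves from 10 uM final top, incubated 1 h at 37° C then 30 min at room temperature. IP-1 measured by IP-One Gq HTRF. IC50 derived from the HTRF ratio.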
A general note: Time-resolved FRET reads energy transfer from a long-lived donor to a nearby acceptor.

Setting [1] is: versus 10 μM Bilirubin agonist, HEK cells expressing human MRGPR X4, read-out: MRGPR4 Antagonist Activity.
Setting [2] is: versus 10 μM Bilirubin agonist, read-out: IC50 (Bilirubin agonist).
The mark [3] stands for this setting: versus 20 μM deoxycholic acid, read-out: IC50 (Deoxycholic Acid agonist).
Where [4] appears, read: versus 20 μM obeticholic acid, read-out: IC50 (Obeticholic Acid Agonist).
[5] abbreviates: versus 50 μM urobilin, read-out: IC50 (Urobilin Agonist).
The mark [6] stands for this setting: versus 100 μM conjugated bilirubin, read-out: IC50 (Conjugated Bilirubin Agonist).

SMILES strings stand for the structures. Like-named read-outs stand apart in the source and are kept apart here.

MRGPRX4, sequence (Q96LA9 whole entry): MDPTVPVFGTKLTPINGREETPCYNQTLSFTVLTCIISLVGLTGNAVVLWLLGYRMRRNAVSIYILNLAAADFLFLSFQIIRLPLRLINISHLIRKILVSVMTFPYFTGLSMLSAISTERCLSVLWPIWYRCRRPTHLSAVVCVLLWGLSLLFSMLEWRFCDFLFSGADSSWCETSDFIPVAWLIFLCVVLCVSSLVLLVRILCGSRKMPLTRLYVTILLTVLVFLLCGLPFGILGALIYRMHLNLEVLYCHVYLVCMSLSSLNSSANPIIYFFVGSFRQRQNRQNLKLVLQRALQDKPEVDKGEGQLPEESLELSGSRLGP

In the case of `Cc1cc(-n2cccc2)ccc1OCc1cccc(C(=O)O)c1F` [Compound 4-27], the IC50 under setting [1] fell in the range of 100 to 500 nM.

As to `O=C(O)c1cccc(COc2ccc(C(F)(F)F)cc2)c1F` [Compound 4-28], under setting [1], the IC50 was less than 100 nM. Same read-out and setting: to `O=C(O)c1cccc(COc2ccccc2Cl)c1F` [Compound 4-29] belongs more than 2500 nM.

With `N#Cc1cc(COc2ccc(Cl)cc2Cl)cc(C(=O)O)c1` [Compound 5-1, 3-cyano-5-((2,4-dichlorophenoxy)methyl)benzoic acid], the IC50 under setting [1] was less than 100 nM; the IC50 under setting [2] was 10 nM; the IC50 under setting [3] was found to be 23 nM; the IC50 under setting [4] is 6 nM; the IC50 under setting [5] came out at 6 nM; the IC50 under setting [6] was 27 nM. As to `N#Cc1ccc(COc2ccc(Cl)cc2Cl)cc1C(=O)O` [Compound 5-2], the IC50 under setting [1] lay in the range of 1000 to 2500 nM.

Regarding `COc1c(COc2ccc(Cl)cc2Cl)cccc1C(=O)O` [Compound 6-1, 3-((2,4-dichlorophenoxy)methyl)-2-methoxybenzoic acid], the IC50 under setting [1] lay in the range of 1000 to 2500 nM. Still for that read-out and setting: to `NCc1cccc(COc2ccc(Cl)cc2Cl)c1` [Compound 7-1, (3-((2,4-dichlorophenoxy)methyl)phenyl)methanamine] belongs 100 to 500 nM; to `Cc1ccc(COc2ccc(Cl)cc2Cl)cc1C(=O)O` [Compound 8-1, 5-((2,4-dichlorophenoxy)methyl)-2-methylbenzoic acid], more than 2500 nM; to `Cc1ccc(C(=O)O)cc1COc1ccc(Cl)cc1Cl` [Compound 8-2], 1000 to 2500 nM.

On to `O=C(O)c1cc(C2CC2)cc(COc2ccc(C(F)(F)F)cc2Cl)n1` [Compound 8-3], for which the IC50 under setting [1] was less than 100 nM. The same measure, in the same setting: in the case of `O=C(O)c1cc(COc2ccc(C(F)(F)F)cc2Cl)cc(-c2ccccc2)c1` [Compound 8-4] it was 500 to 1000 nM; in that of `O=C(O)c1cc(Br)cc(COc2ccc(C(F)(F)F)cc2Cl)n1` [Compound 9-1, 4-bromo-6-((2-chloro-4-(trifluoromethyl)phenoxy)methyl)picolinic acid], less than 100 nM.

For `Cc1cc(C(F)(F)F)ccc1OCc1cc(F)cc(C(=O)O)c1` [Compound 9-2], the IC50 under setting [1] was less than 100 nM. On the same count and under the same terms, to `O=C(O)c1cc(F)cc(COc2ccc3ccccc3c2)c1` [Compound 9-3] belongs less than 100 nM; to `O=C(O)c1cccc(COc2ccc(C(F)(F)F)cn2)c1` [Compound 10-1, 3-(((5-(trifluoromethyl)pyridin-2-yl)oxy)methyl)benzoic acid], 1000 to 2500 nM.

Take `O=C(O)c1cc(COc2ccc(C(F)(F)F)cc2Cl)cc(C2CC2)c1` [Compound 11-1, 3-((2-chloro-4-(trifluoromethyl)phenoxy)methyl)-5-cyclopropylbenzoic acid]: under setting [1], the IC50 is less than 100 nM. With `O=C(O)c1cccc(CNc2ccc(Cl)cc2Cl)c1` [Compound 12-1, 3-(((2,4-dichlorophenyl)amino)methyl)benzoic acid], the IC50 under setting [1] lay in the range of 100 to 500 nM. On the same count and under the same terms, in the case of `O=C(O)c1cccc(CNc2ccc3ccccc3c2)c1` [Compound 12-2] it was 500 to 1000 nM; in that of `O=C(O)c1cccc(CNc2ccc(C(F)(F)F)cc2Cl)n1` [Compound 12-3], less than 100 nM.

As for `O=C(O)c1cccc(CNc2ccc(C(F)(F)F)cc2Cl)c1` [Compound 12-4], the IC50 under setting [1] is less than 100 nM. Turning to `NC(=O)c1cccc(COc2cccc(Cl)c2Cl)c1` [Compound 13-1, 3-((2,3-dichlorophenoxy)methyl)benzamide], under setting [1], the IC50 was more than 2500 nM.

Turning to `OCc1cccc(COc2ccc(Cl)cc2Cl)c1` [Compound 14-1, (3-((2,4-dichlorophenoxy)methyl)phenyl)methanol], under setting [1], the IC50 lay within 1000 to 2500 nM. On the same count and under the same terms, in the case of `O=C(O)c1cccc(CSc2ccc(Cl)cc2Cl)c1` [Compound 15-1, 3-(((2,4-dichlorophenyl)thio)methyl)benzoic acid] it was 100 to 500 nM; in that of `O=C(O)c1cccc(Oc2ccc(Cl)cc2Cl)c1` [Compound 16-1, 3-(2,4-dichlorophenoxy)benzoic acid], 1000 to 2500 nM. Still for that read-out and setting: in the case of `O=C(O)c1cccc(Oc2ccc([N+](=O)[O-])cc2Cl)c1` [Compound 16-2] it was more than 2500 nM; in that of `N#Cc1cccc(COc2ccc(C(F)(F)F)cc2Cl)c1` [Compound 17-1, 3-((2-chloro-4-(trifluoromethyl)phenoxy)methyl)benzonitrile], 100 to 500 nM. As to `FC(F)(F)c1ccc(OCc2cccc(-c3nnn[nH]3)c2)cc1Cl` [Compound 17-2], the IC50 under setting [1] was less than 100 nM. Still for that read-out and setting: to `FC(F)(F)c1cc(Cl)ccc1OCc1cccc(-c2nnn[nH]2)c1` [Compound 17-3] belongs 100 to 500 nM. As to `Clc1ccc(OCc2cccc(-c3nnn[nH]3)c2)c(Cl)c1Cl` [Compound 17-4], the IC50 by setting is: under setting [1], less than 100 nM; under setting [2], 5 nM; under setting [3], 6 nM; under setting [4], 8 nM; under setting [5], 6 nM; under setting [6], 7 nM. Take `c1cc(COc2ccc3ccccc3c2)cc(-c2nnn[nH]2)c1` [Compound 17-5]: the IC50 under setting [1] was less than 100 nM. On the same count and under the same terms, to `FC(F)(F)c1ccc(OCc2cccc(-c3nnn[nH]3)n2)c(Cl)c1` [Compound 17-6] belongs less than 100 nM; to `Fc1ccc(OCc2cccc(-c3nnn[nH]3)c2)c(Cl)c1` [Compound 17-7], less than 100 nM. On the same count and under the same terms, to `FC(F)(F)Oc1ccc(OCc2cccc(-c3nnn[nH]3)c2)c(Cl)c1` [Compound 17-8] belongs less than 100 nM.

For the compound `Fc1cc(OCc2cccc(-c3nnn[nH]3)c2)ccc1C(F)(F)F` [Compound 17-9], under setting [1], the IC50 is less than 100 nM. Take `FC(F)(F)Oc1ccc(OCc2cccc(-c3nnn[nH]3)c2)cc1Cl` [Compound 17-10]: under setting [1], the IC50 was less than 100 nM. Same read-out and setting: in the case of `Cc1cc(C(F)(F)F)ccc1OCc1cccc(-c2nnn[nH]2)c1` [Compound 17-11] it was less than 100 nM. On the same count and under the same terms, to `FC(F)(F)c1ccc(OCc2ccc(-c3nnn[nH]3)cc2)c(Cl)c1` [Compound 17-12] belongs 500 to 1000 nM; to `Cc1cc(Cl)ccc1OCc1cccc(-c2nnn[nH]2)c1` [Compound 17-13], less than 100 nM; to `Fc1cc(COc2ccc(C(F)(F)F)cc2Cl)cc(-c2nnn[nH]2)c1` [Compound 17-14], less than 100 nM.

As for `Fc1c(COc2ccc(C(F)(F)F)cc2Cl)cccc1-c1nnn[nH]1` [Compound 17-15], the IC50 under setting [1] is less than 100 nM. Same read-out and setting: to `Fc1ccc(COc2ccc(C(F)(F)F)cc2Cl)cc1-c1nnn[nH]1` [Compound 17-16] belongs less than 100 nM. `N#Cc1cc(COc2ccc(C(F)(F)F)cc2Cl)cc(C(=O)O)c1` [Compound 32-1, 3-((2-chloro-4-(trifluoromethyl)phenoxy)methyl)-5-cyanobenzoic acid]: the IC50 is, setting by setting: under setting [1], less than 100 nM; under setting [2], 6 nM; under setting [3], 10 nM; under setting [4], 3 nM; under setting [5], 8 nM; under setting [6], 7 nM. With `Cc1cc(C(F)(F)F)ccc1OCc1cc(C#N)cc(C(=O)O)c1` [Compound 32-2], the IC50 runs as follows: (read-out: IC50 (10 μM BAR502) nM, MRGPRX4 antagonists versus 10 μM BAR502 agonist) 17 nM; under setting [1], less than 100 nM. For the compound `N#Cc1cc(COc2ccc(Cl)c(Cl)c2Cl)cc(C(=O)O)c1` [Compound 32-3], the IC50 under setting [1] is less than 100 nM. The same measure, in the same setting: to `N#Cc1cc(COc2ccc(OC(F)(F)F)cc2Cl)cc(C(=O)O)c1` [Compound 32-4] belongs less than 100 nM; to `N#Cc1cc(COc2ccc(C(F)(F)F)c(Cl)c2)cc(C(=O)O)c1` [Compound 32-5], less than 100 nM. As to `O=C(O)c1cccc(COc2ccccc2C(F)F)c1` [Compound 33-1, 3-((2-(difluoromethyl)phenoxy)methyl)benzoic acid], the IC50 under setting [1] is more than 2500 nM. The same measure, in the same setting: to `O=C(O)c1cccc(COc2ccc(C(F)F)cc2)c1` [Compound 33-2] belongs 100 to 500 nM; to `O=C(O)c1cccc(COc2ccc(C(F)F)cc2Cl)c1` [Compound 33-3], less than 100 nM; to `O=C(O)c1cccc(COc2ccc(C(F)F)cc2F)c1` [Compound 33-4], 100 to 500 nM. Same read-out and setting: to `O=C(O)c1cccc(COc2ccc(C(F)(F)F)cc2C2CC2)c1` [Compound 34-1, 3-((2-cyclopropyl-4-(trifluoromethyl)phenoxy)methyl)benzoic acid] belongs 500 to 1000 nM; to `O=C(O)c1cccc(COc2ncc(C(F)(F)F)cc2Cl)c1` [Compound 35-1, 3-(((3-chloro-5-(trifluoromethyl)pyridin-2-yl)oxy)methyl)benzoic acid], 100 to 500 nM. The same measure, in the same setting: to `C#Cc1cc(C(F)(F)F)ccc1OCc1cccc(C(=O)O)c1F` [Compound 36-1, 3-((2-ethynyl-4-(trifluoromethyl)phenoxy)methyl)-2-fluorobenzoic acid] belongs 500 to 1000 nM; to `CCc1c(COc2ccc(C(F)(F)F)cc2Cl)cccc1C(=O)O` [Compound 37-1, 3-((2-chloro-4-(trifluoromethyl)phenoxy)methyl)-2-ethylbenzoic acid], 1000 to 2500 nM; to `CN(C)c1cc(COc2ccc(C(F)(F)F)cc2Cl)cc(C(=O)O)c1` [Compound 38-1, 3-((2-chloro-4-(trifluoromethyl)phenoxy)methyl)-5-(dimethylamino)benzoic acid], 100 to 500 nM. Regarding `CCCc1cc(COc2ccc(C(F)(F)F)cc2Cl)nc(C(=O)O)c1` [Compound 39-1, 6-((2-chloro-4-(trifluoromethyl)phenoxy)methyl)-4-propylpicolinic acid], the IC50 under setting [1] was less than 100 nM. Same read-out and setting: to `O=S(=O)(O)c1cccc(COc2ccc(C(F)(F)F)cc2Cl)c1` [Compound 40-1, 3-((2-chloro-4-(trifluoromethyl)phenoxy)methyl)benzenesulfonic acid] belongs 500 to 1000 nM.

For the origin of these results see patent publication US11840521B2, “Modulators of Mas-related G-protein receptor X4 and related products and methods” (Escient Pharmaceuticals, Inc., priority 2019, dated 2023).
